Literature values in US20090041835A1, “METHOD OF INHIBITING LEAKAGE OF DRUG ENCAPSULATED IN LIPOSOMES” (KYOWA HAKKO KOGYO CO., LTD., priority 1999, published 2009).

Conditions: LUVs of 190 nm average particle size, pH gradient using ammonium sulfate; 50% mouse serum at 37° C.

leakage of drug out of the LUVs: rapidly leaked out
Structure (SMILES): O=C(O)c1cn(C2CC2)c2cc(N3CCNCC3)c(F)cc2c1=O [ciprofloxacin]
